Reference: ChEMBL document CHEMBL1147037 (J Biol Chem, 2007)

Legend:
Mu-type opioid receptor [1] = target: T1, Mu-type opioid receptor (Homo sapiens, UniProt P35372); experiment: Displacement of [3H]naloxone from human mu poioid receptor expressed in HEK293 cells; assay type: cell-based
Mu-type opioid receptor [2] = target: T1, Mu-type opioid receptor; experiment: Activation of human mu opioid receptor expressed in HEK293a cells co-expressing YFP-labelled alphai1 and CFP-labelled beta1gamma2 Gi subunits assessed as Gi protein activation by fluorescence resonance energy transfer; assay type: cell-based, HEK293-A
Mu-type opioid receptor [3] = target: T1, Mu-type opioid receptor; experiment: Activation of human mu opioid receptor expressed in HEK293a cells coexpressing YFP-labelled alphai1 and CFP-labelled beta-1-gamma-2 Gi subunits assessed as decrease in fluorescence resonance energy transfer signal at 10 uM relative to morphine; assay type: cell-based; conditions: HEK293-A
Mu-type opioid receptor [4] = target: T1, Mu-type opioid receptor; conditions: HEK293-A, at 100 µM

T1 sequence (P35372 whole entry): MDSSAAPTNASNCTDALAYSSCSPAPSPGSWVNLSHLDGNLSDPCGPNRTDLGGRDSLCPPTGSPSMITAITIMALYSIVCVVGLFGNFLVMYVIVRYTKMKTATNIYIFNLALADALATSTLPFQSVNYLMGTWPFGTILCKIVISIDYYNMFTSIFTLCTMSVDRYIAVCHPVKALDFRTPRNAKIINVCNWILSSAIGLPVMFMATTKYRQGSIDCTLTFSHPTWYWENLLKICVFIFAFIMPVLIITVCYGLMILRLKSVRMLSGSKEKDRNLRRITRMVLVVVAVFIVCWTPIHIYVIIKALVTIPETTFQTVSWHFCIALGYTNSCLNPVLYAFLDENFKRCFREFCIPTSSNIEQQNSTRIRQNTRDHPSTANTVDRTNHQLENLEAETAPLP

With COC1=CC=C2[C@H]3Cc4ccc(O)c5c4[C@@]2(CCN3C)[C@H]1O5 [ORIPAVINE] the Ki (Mu-type opioid receptor [1]) was 286 nM, the EC50 (Mu-type opioid receptor [2]) was 277 nM and the Emax (Mu-type opioid receptor [3]) was 100%.

Work on COc1ccc(C[C@@H]2c3cc(O)c(OC)cc3CCN2C)cc1O yielded an Emax (Mu-type opioid receptor [4]) of 15.9%.

Work on COc1ccc2c3c1O[C@H]1C(=O)C=C[C@H]4[C@@H](C2)N(C)CC[C@]314 [CODEINONE] yielded a Ki (Mu-type opioid receptor [1]) of 459 nM, an EC50 (Mu-type opioid receptor [2]) of 294 nM and an Emax (Mu-type opioid receptor [3]) of 100%.

Molecule COC1=C[C@]23CCN(C)[C@H](Cc4ccc(OC)c(O)c42)C3=C[C@@H]1O has an Emax (Mu-type opioid receptor [4]) of 17.7%.

Molecule COC1=C[C@]23CCN(C)[C@H](Cc4ccc(OC)c(O)c42)C3=CC1=O [SALUTARIDINE] has a Ki (Mu-type opioid receptor [1]) of 34600 nM, an Emax (Mu-type opioid receptor [4]) of 54.4% and an EC50 (Mu-type opioid receptor [2]) of 32500 nM.

Work on COC1=CC=C2[C@H]3Cc4ccc(OC)c5c4[C@@]2(CCN3C)[C@H]1O5 [THEBAINE] yielded a Ki (Mu-type opioid receptor [1]) of 7400 nM, an Emax (Mu-type opioid receptor [4]) of 76.3% and an EC50 (Mu-type opioid receptor [2]) of 5600 nM.

CN1CC[C@]23c4c5ccc(O)c4O[C@H]2C(=O)C=C[C@H]3[C@H]1C5 [MORPHINONE] was tested, and the Ki (Mu-type opioid receptor [1]) was 146 nM, the EC50 (Mu-type opioid receptor [2]) was 28 nM and the Emax (Mu-type opioid receptor [3]) was 100%.
